Test results reported in article PMC6013247, “Preclinical characterization of INCB053914, a novel pan-PIM kinase inhibitor, alone and in combination with anticancer agents, in models of hematologic malignancies” (PLoS ONE, 2018).

Columns and labels:
Pfeiffer DLBCL cells = assay: In vitro proliferation of Pfeiffer DLBCL cells, single agents and combination; type: cell-based
Method: Synergistic effects of INCB053914 in combination with INCB050465, cytarabine, or itacitinib, were assessed based on the Bliss independence model. In this model, the expected additive effect, with the assumption that concentration dependent effects of 2 drugs (A and B) are independent, is given by the equation EIND = EA + EB – EA •EB, where 0 ≤ EIND ≤ 1; EA and EB are the magnitudes of effects of A and B alone at given concentrations.
The interaction between effects of A and B can be described by the equation Combination Index = EIND/ EOBS, where EOBS is the observed combined effect of A + B expressed as a probability (0 ≤ EOBS ≤ 1). If the point estimate of Combination Index and its upper 97.5% confidence limit are <1 then the combined effect is synergistic; if the 2-sided 95% confidence intervals (CI) encompass 1 then the combined effect is additive (ie, independent); if the point estimate of Combination Index and the lower 2.5% confidence limit are >1 then the combined effect of A + B are antagonistic.

[1] = test system: PIM isozyme expression in Pfeiffer DLBCL cells; assay: PIM isozyme expression in Pfeiffer DLBCL cells; type: cell-based
[2] = test system: human KG-1 AML xenografts; assay: Tumor growth in KG-1 (AML) xenograft, combination with cytarabine; type: in vivo, mouse; conditions: KG-1 (AML) tumors
Method: Female immune compromised (severe combined immunodeficiency [SCID]) mice (5–9 weeks of age; Charles River Laboratories, Wilmington, Massachusetts) were inoculated with MOLM-16, KG-1, or KMS-12-BM cells. A cell suspension in Dulbecco’s phosphate-buffered saline (DPBS) (1 × 10^8 cells/ml) was mixed 1:1 (v/v) with matrigel, and 200 μl was injected subcutaneously into the flank of each mouse. […] The treatment of tumor-bearing mice started 7 to 24 days after tumor inoculation for efficacy studies and approximately 14 to 27 days after tumor inoculation for pharmacodynamic studies.
Synergistic effects of INCB053914 in combination with INCB050465, cytarabine, or itacitinib, were assessed based on the Bliss independence model [56, 57]. In this model, the expected additive effect, with the assumption that concentration dependent effects of 2 drugs (A and B) are independent, is given by the equation EIND = EA + EB – EA •EB, where 0 ≤ EIND ≤ 1; EA and EB are the magnitudes of effects of A and B alone at given concentrations.
The interaction between effects of A and B can be described by the equation Combination Index = EIND/ EOBS, where EOBS is the observed combined effect of A + B expressed as a probability (0 ≤ EOBS ≤ 1). […]

INA-6 cells = assay: STAT3(Y705) and PIM kinase substrate phosphorylation in INA-6 cells in culture; type: cell-based; conditions: INA-6 cells treated for 24 hours in culture
Method: Fig S1. Effects of INCB053914 on STAT3(Y705) and PIM kinase substrate phosphorylation in INA-6 cells treated for 24 hours in culture.

[3] = test system: pBAD, pSTAT3 and MYC in INA-6 (MM) tumors; assay: pBAD, pSTAT3 and MYC levels in INA-6 (MM) tumors; type: in vivo, mouse; conditions: INA-6 (MM) tumors in mice
Method: The PI3Kδ inhibitor INCB050465 (10 mg/kg once a day orally) was evaluated in combination with INCB053914 (30 mg/kg once a day orally) in mice bearing Pfeiffer (DLBCL) xenografts, a model sensitive to PI3Kδ inhibition (eight mice/group). Cytarabine was administered via intraperitoneal injection at a standard dose of 20 mg/kg twice a week, in combination with oral INCB053914 at a submaximally efficacious dose of 20 mg/kg twice a day for 12 days in mice bearing human KG-1 AML xenografts, a cytarabine-sensitive model (eight mice/group). The oral JAK1-selective inhibitor itacitinib (60 mg/kg twice a day orally) was assessed in combination with INCB053914 (100 mg/kg twice a day orally) after 8 days of administration to SCID mice bearing INA-6 (MM) xenografts (eight mice/group), a model sensitive to JAK inhibition.

In the case of `CCOc1c([C@H](C)n2nc(C)c3c(N)ncnc32)cc(Cl)c(F)c1[C@@H]1CNC(=O)C1` [INCB050465], the “proliferation of Pfeiffer cells, single agent” value (Pfeiffer DLBCL cells) is reported as “inhibited”, the “expression of all three PIM isozymes relative to baseline” value [1] is reported as “concentration-dependent increases” and the “increase in PIM2 expression relative to baseline” value [1] is reported as ~ 2.5 fold.
In the case of `Nc1ccn([C@@H]2O[C@H](CO)[C@@H](O)[C@@H]2O)c(=O)n1` [cytarabine, Cytarabine, reference compound], the “tumor growth, single agent” value [2] is reported as “inhibited”.
In the case of `N#CCC1(n2cc(-c3ncnc4[nH]ccc34)cn2)CN(C2CCN(C(=O)c3ccnc(C(F)(F)F)c3F)CC2)C1` [itacitinib, reference compound], the “PIM kinase substrate phosphorylation” value (INA-6 cells) is reported as “unaffected”, the MYC levels [3] is reported as “decreased MYC levels” and the “level of pSTAT3” value [3] is reported as “decrease”.
In the case of `N#CC[C@H](C1CCCC1)n1cc(-c2ncnc3[nH]ccc23)cn1` [ruxolitinib], the “PIM kinase substrate phosphorylation” value (INA-6 cells) is reported as “unaffected”.
